Drawing on ChEMBL document CHEMBL1128081, “Synthesis of dibenzo[a,d]cycloheptanes as cytokine biosynthesis inhibitors” (Bioorg Med Chem Lett, 1995), this text covers ED50 and IC50 for twelve compounds.

Assay type in all cases: functional
Assay [1] has as its system Mus musculus. Briefly: Ability to inhibit the accumulation of cytokine interleukin-6 (IL-6) in the serum of […] parvum-primed mice by po administration.
Assay [2] deals with Mus musculus. Briefly: Ability to inhibit the accumulation of gamma-interferon (gamma-IFN) in the serum of […] parvum-primed mice by po administration.
The subject of assay [3] is Mus musculus. Briefly: Ability to inhibit the accumulation of inflammatory cytokine interleukin-1 alpha (IL-1 alpha) in the serum of […] parvum-primed mice by po administration.
Assay [4] relates to Mus musculus. Briefly: Ability to inhibit the accumulation of tumor necrosis factor-alpha (TNF-alpha) in the serum of […] parvum-primed mice by po administration.
The species named for assay [5] is Mus musculus. Briefly: In vitro inhibitory activity was measured for the release of tumor necrosis factor-alpha (TNF-alpha) from a murine monocytic cell line.

A value given as a limit tells only on which side of the number the result lay.

Take `CCCC1(CCCN(C)C)c2ccccc2CCc2ccccc21`: the ED50 in the assay with Mus musculus [1] is 15.8 mg/kg; with Mus musculus [2], 5.9 mg/kg; with Mus musculus [3], 8.7 mg/kg; in the assay with Mus musculus [4], above 25 mg/kg.
In the same order, the values of `CCCCCCC1(CCN(C)C)c2ccccc2CCc2ccccc21` are above 25 mg/kg, above 25 mg/kg, above 25 mg/kg and above 25 mg/kg.
For `CCOC1(CCN(C)C)c2ccccc2C=Cc2ccccc21`, the ED50 in the assay with Mus musculus [1] was above 25 mg/kg; in the assay with Mus musculus [2], 13.2 mg/kg; with Mus musculus [3] it was above 6.25 mg/kg; in the assay on Mus musculus [4], above 25 mg/kg.
With `CCOCC1(CCNC)c2ccccc2CCc2ccccc21`, the ED50 with Mus musculus [1], in the assay on Mus musculus [2], in the assay on Mus musculus [3] and with Mus musculus [4] was above 25 mg/kg throughout.
Turning to `CCOC1(CCN(C)C(C)=O)c2ccccc2CCc2ccccc21`, the median effective dose (ED50) with Mus musculus [1], with Mus musculus [2], in the assay with Mus musculus [3] and in the assay on Mus musculus [4] was above 25 mg/kg in each case.
Regarding `CCCC1(CCN(C)C)c2ccccc2CCc2ccccc21`, the ED50 with Mus musculus [1] is 23.3 mg/kg; in the assay on Mus musculus [2], 10.8 mg/kg; in the assay on Mus musculus [3], 6.25 mg/kg.
`CCOC1(CCN2CCCC2)c2ccccc2CCc2ccccc21`: the median effective dose (ED50) amounted to 11.3 mg/kg in the assay on Mus musculus [2], 11.1 mg/kg in the assay with Mus musculus [3] and 16.1 mg/kg in the assay with Mus musculus [4].
`CCOCC1(CCN(C)C)c2ccccc2CCc2ccccc21`: the ED50 with Mus musculus [1] is above 25 mg/kg; with Mus musculus [2] it was 13.5 mg/kg; with Mus musculus [3] it was 18.1 mg/kg; in the assay on Mus musculus [4], 19.6 mg/kg.
In the same order, the values of `CCOC1(CCN(C)C)c2ccccc2CCc2cccnc21` (configuration not stated) are above 25 mg/kg, above 25 mg/kg, above 25 mg/kg and above 25 mg/kg.
On to `CN(C)CCC1(O)c2ccccc2CCc2ccccc21`, for which the median effective dose (ED50) in the assay on Mus musculus [1], in the assay on Mus musculus [2], in the assay on Mus musculus [3] and in the assay on Mus musculus [4] was above 25 mg/kg in each case.
Turning to `CCOC1(CCN(C)C)c2ccccc2CCc2ccccc21`, the median effective dose (ED50) in the assay with Mus musculus [1] is 8 mg/kg; with Mus musculus [2], 1.3 mg/kg; with Mus musculus [3], 2.4 mg/kg; in the assay on Mus musculus [4], 17.6 mg/kg. Also, in the assay listed under Mus musculus [5], 1.7 µM corresponded to half-maximal inhibition (IC50).
Take `CCCC1(CN(C)C)c2ccccc2CCc2ccccc21`: the median effective dose (ED50) is 25 mg/kg with Mus musculus [1], 3.9 mg/kg in the assay with Mus musculus [2], above 25 mg/kg in the assay with Mus musculus [3] and above 25 mg/kg in the assay with Mus musculus [4].

What is called ED50 is the dose at which the effect has come halfway, by size or by number of responders. Broadly, the IC50 is the concentration that inhibits the measured activity by half. A lower IC50 goes with greater potency in that assay.
